In patent US4876266A, “1-aralkyl-2-mercaptoimidazolines as DBH inhibitors” (SmithKline Beckman Corporation, priority 1987, dated 1989):

What was measured:
[1] = target: T1, dopamine-β-hydroxylase (DBH) (Bos taurus, UniProt P15101); assay: in vitro DBH inhibition, conversion of tyramine to octopamine in the presence of DBH, spectrophotometric absorbance at 330 nm; type: biochemical; conditions: concentration of compound at which DBH activity was halved
T1 sequence (P15101 1-610): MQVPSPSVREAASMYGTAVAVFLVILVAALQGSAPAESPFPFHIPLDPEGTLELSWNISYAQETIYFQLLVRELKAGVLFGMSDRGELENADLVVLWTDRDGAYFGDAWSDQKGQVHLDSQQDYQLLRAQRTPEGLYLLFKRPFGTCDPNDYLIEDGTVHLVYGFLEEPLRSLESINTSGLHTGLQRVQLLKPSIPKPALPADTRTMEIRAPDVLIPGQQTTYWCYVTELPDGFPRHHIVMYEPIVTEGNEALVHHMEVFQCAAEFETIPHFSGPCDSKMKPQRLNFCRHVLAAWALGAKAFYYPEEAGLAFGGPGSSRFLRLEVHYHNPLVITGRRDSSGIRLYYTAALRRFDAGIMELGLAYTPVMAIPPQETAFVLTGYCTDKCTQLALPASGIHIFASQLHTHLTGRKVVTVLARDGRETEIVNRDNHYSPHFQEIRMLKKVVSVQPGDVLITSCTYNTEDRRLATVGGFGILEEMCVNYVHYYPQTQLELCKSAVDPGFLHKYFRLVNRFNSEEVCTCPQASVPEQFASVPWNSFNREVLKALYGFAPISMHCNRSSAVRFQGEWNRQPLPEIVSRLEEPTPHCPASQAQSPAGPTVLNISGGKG
Method: Listed in Table III are the compounds of the invention that were tested for in vitro DBH inhibition by a standard procedure for assaying conversion of tyramine to octopamine in the presence of DBH. J. J. Pisano, et al., Biochim. Biophys. Acta, 43, 566-568 (1960). Octopamine was assayed following sodium periodate oxidation to p-hydroxybenzaldehyde by measuring spectrophotometric absorbance at 330 nm.

DBH = conditions: significance of the observation is uncertain; cited from earlier work
[2] = tested on: spontaneously hypertensive rats; assay: mean arterial blood pressure in spontaneously hypertensive rats, indwelling cannulae in the tail arteries; type: in vivo, rat; conditions: 50 mg/kg orally; within approximately
Method: Further, spontaneously hypertensive rats were treated with a suspension or solution of 1-(3,5-difluorobenzyl)-2-mercaptoimidazoline at a dose of 50 mg/kg orally and mean arterial blood pressure was monitored for 260 minutes using indwelling cannulae in the tail arteries. […] Maximum blood pressure reduction was approximately 15 to 20 mm Hg.

Structure (SMILES)	IC50 [1] [µM]	DBH levels in treated patients (DBH)	time after treatment to significant blood pressure reductions [2] [min]
S=C1NCCN1Cc1ccccc1 [1-Benzyl-2-mercaptoimidazoline]	10		
COC(=O)[C@H]1[C@H]2C[C@@H]3c4[nH]c5cc(OC)ccc5c4CCN3C[C@H]2C[C@@H](OC(=O)c2cc(OC)c(OC)c(OC)c2)[C@@H]1OC [reserpine]		lowered DBH levels	
CC(N)(Cc1ccc(O)c(O)c1)C(=O)O (stereo not drawn) [alpha-methyl-DOPA]		lowered DBH levels	
Fc1cc(F)cc(CN2CCN=C2S)c1 [1-(3,5-Difluorobenzyl)-2-mercaptoimidazoline]	1.2		≤ 30
